Measured values as given in patent EP0723577B1, “DETERGENT COMPOSITIONS CONTAINING SILVER ANTI-TARNISHING AGENTS” (UNILEVER N.V., priority 1993, dated 1995).

What was measured:
[1] = pKa determination by titration of a 0.001M solution with 1N NaOH; assay type: physicochemical
Protocol: As used herein, the term "pKa" means a pH value at which 50% of the heterocyclic ring moieties of the compound (particularly the five-membered rings in the case of the purine class compounds) are in ionic form.
The pH of this solution was adjusted to 3.0 with H2SO4. The solution was then titrated with 1N NaOH to pH 11.0. A plot of mls. NaOH vs. pH for each sample was prepared. The pKa of the compound is that point where the maximum change in pH as a function of mls. NaOH is observed.

[2] = Silver plates held in the compositions for 25 minutes, evaluated for tarnishing; conditions: for Effective Silver Anti-Tarnishing: 4 wt.% epsilon-phthalimido peroxyhexanoic acid
Protocol: (§1) A comparison of anti-tarnishing performance of purine class compounds within the scope of the invention and azole compounds outside the invention was conducted. The selected compounds were incorporated in an amount of 1 wt.% in a machine dishwashing composition containing 4 wt.% epsilon-phthalimido peroxyhexanoic acid as the bleaching agent. The pH values of the compositions were adjusted by the addition of a 50% solution of sodium hydroxide or concentrated sulfuric acid, as necessary.
(§2) Copper plates and silver plates were held in each of the compositions for 25 minutes, removed, rinsed with deionized water and evaluated for tarnishing. […]
as §1, with “1,3-N azole” for “purine class”
as §2

[3] = Tarnish-monitoring experiments in a dishwasher, monitors visually ranked 0 to 6 against the Example 1 reference scale; conditions: general description, compositions containing the compound
Protocol: The wash program consisted of a pre-wash at 40°C, a mainwash at 55°C, two intermediate rinses, and a final rinse at 65°C.
The mainwash pH with these compositions was typically 8.7. Silver-plated spoons (2 per run) were the monitors used in the test. The spoons were supplied by Oneida Silversmiths, USA. The monitors were washed in a commercially available hand dishwash liquid and rinsed with deionized water and acetone before use. In the dishwasher the monitors were kept apart from each other in the cutlery basket. At the end of a single-run machine program, the monitors were visually analyzed for the presence of colours and the loss of gloss.
This ranking of spoons was used as a reference scale for all subsequent Examples.

[4] = Example 13, Tables 20 and 21, read-out: pKa of compounds
[5] = Example 13: 1 wt.% compound, pH of composition 8.5
[6] = Example 13: 1 wt.% compound, pH of composition 11.0
[7] = Example 5: 1 wt.% compound, pH of composition 8.5
[8] = Example 5: 1 wt.% compound, pH of composition 11.0
[9] = Example 5: 1 wt.% compound, pH of composition 8.6
[10] = Example 13: 1 wt.% compound, pH of composition 8.6

c1nnn[nH]1 [1,2,3,5-Tetrazole]
pKa [1, 4]: 8.4 | pH of compositions in which the compound is effective ([2]; Example 13): greater than 9.4 | effectiveness as a silver anti-tarnishing agent, in words ([2]; Example 13, pH of 8.5): not effective | effectiveness as a silver anti-tarnishing agent, in words ([2]; Example 13, pH of 9.5 and greater): effective | Effective Silver Anti-Tarnishing [2, 5]: No (A tarnish score of 3 or less was considered effective as a silver anti-tarnishing compound) | Effective Silver Anti-Tarnishing ([2]; Example 13: 1 wt.% compound, pH of composition 9.5): Yes (A tarnish score of 3 or less was considered effective as a silver anti-tarnishing compound) | Effective Silver Anti-Tarnishing ([2]; Example 13: 1 wt.% compound, pH of composition 10.5): Yes (A tarnish score of 3 or less was considered effective as a silver anti-tarnishing compound) | Effective Silver Anti-Tarnishing [2, 6]: Yes (A tarnish score of 3 or less was considered effective as a silver anti-tarnishing compound)

c1ccc(-c2ncc[nH]2)cc1 [2-Phenylimidazole, reference compound]
pKa [1]: 8.8 | Effective Silver Anti-Tarnishing [2, 7]: No (A tarnish score of 3 or less was considered effective as a silver anti-tarnishing compound) | Effective Silver Anti-Tarnishing [2, 8]: No (A tarnish score of 3 or less was considered effective as a silver anti-tarnishing compound) | prevention of silver tarnishing, in words ([2]; Example 13, pH 11.0): did not prevent silver tarnishing | Effective Silver Anti-Tarnishing [2, 5]: No (A tarnish score of 3 or less was considered effective as a silver anti-tarnishing compound) | Effective Silver Anti-Tarnishing [2, 6]: No (A tarnish score of 3 or less was considered effective as a silver anti-tarnishing compound)

Nc1nc[nH]n1 [3-amino-1,2,4-triazole]
pKa [1]: 7.3 | Effective Silver Anti-Tarnishing ([2]; Example 13: 1 wt.% compound, pH of composition 8.3): Yes (A tarnish score of 3 or less was considered effective as a silver anti-tarnishing compound)

Nc1nn[nH]n1 [4-amino-1,2,3,5-tetrazole]
pKa [1]: 8.1 | effectiveness as a silver anti-tarnishing agent, in words ([2]; Example 13, pH of 8.8): not effective | Effective Silver Anti-Tarnishing ([2]; Example 13: 1 wt.% compound, pH of composition 8.8): No (A tarnish score of 3 or less was considered effective as a silver anti-tarnishing compound)

O=[N+]([O-])c1ccc2cn[nH]c2c1 [6-Nitroindazole, reference compound]
pKa [1]: 6.8 | Effective Silver Anti-Tarnishing [2, 7]: No (A tarnish score of 3 or less was considered effective as a silver anti-tarnishing compound) | Effective Silver Anti-Tarnishing [2, 8]: No (A tarnish score of 3 or less was considered effective as a silver anti-tarnishing compound) | Effective Silver Anti-Tarnishing [2, 5]: No (A tarnish score of 3 or less was considered effective as a silver anti-tarnishing compound) | Effective Silver Anti-Tarnishing [2, 6]: No (A tarnish score of 3 or less was considered effective as a silver anti-tarnishing compound)

Nc1ncnc2nc[nH]c12 [Adenine]
pKa [1]: 7.2 | prevention of silver tarnishing, in words ([2]; Example 5, pH 6.9): did not prevent tarnishing | prevention of silver tarnishing, in words ([2]; Example 5, pH 8.6): prevented silver tarnishing | Effective Silver Anti-Tarnishing ([2]; Example 5: 1 wt.% compound, pH of composition 6.9): No (A tarnish score of 3 or less was considered effective as a silver anti-tarnishing compound) | Effective Silver Anti-Tarnishing [2, 9]: Yes (A tarnish score of 3 or less was considered effective as a silver anti-tarnishing compound)

Oc1ncnc2[nH]ncc12 [Allopurinol]
pKa [1]: 6.1 | Effective Silver Anti-Tarnishing [2, 9]: Yes (A tarnish score of 3 or less was considered effective as a silver anti-tarnishing compound)

N=C(N)NCCC[C@H](N)C(=O)O [Arginine, reference compound]
pKa [1]: 9.1 | pKa of compounds [1]: 9.1 | Effective Silver Anti-Tarnishing [2, 9]: No (A tarnish score of 3 or less was considered effective as a silver anti-tarnishing compound) | Effective Silver Anti-Tarnishing [2, 10]: No (A tarnish score of 3 or less was considered effective as a silver anti-tarnishing compound)

c1ccc2[nH]cnc2c1 [Benzimidazole]
pKa of compounds [1]: 5.5 | Effective Silver Anti-Tarnishing [2, 10]: Yes (A tarnish score of 3 or less was considered effective as a silver anti-tarnishing compound)

Nc1nc2nc[nH]c2c(=O)[nH]1 [Guanine]
pKa [1]: 6.7 | prevention of silver tarnishing, in words ([2]; Example 5, pH 7.0): did not prevent tarnishing | prevention of silver tarnishing, in words ([2]; Example 5, pH 8.6): prevented silver tarnishing | Effective Silver Anti-Tarnishing ([2]; Example 5: 1 wt.% compound, pH of composition 7.0): No (A tarnish score of 3 or less was considered effective as a silver anti-tarnishing compound) | Effective Silver Anti-Tarnishing [2, 9]: Yes (A tarnish score of 3 or less was considered effective as a silver anti-tarnishing compound)

N[C@@H](Cc1c[nH]cn1)C(=O)O [Histidine]
Effective Silver Anti-Tarnishing [2, 10]: Yes (A tarnish score of 3 or less was considered effective as a silver anti-tarnishing compound)

O=c1[nH]cnc2nc[nH]c12 [Hypoxanthine]
pKa ([1]; pKa of compounds): 6 | Effective Silver Anti-Tarnishing [2, 9]: Yes (A tarnish score of 3 or less was considered effective as a silver anti-tarnishing compound)

c1c[nH]cn1 [Imidazole]
pKa [1, 4]: 6.9 | Effective Silver Anti-Tarnishing [2, 10]: Yes (A tarnish score of 3 or less was considered effective as a silver anti-tarnishing compound)

c1cn[nH]c1 [Pyrazole, reference compound]
pKa [1]: 11.5 | prevention of heavy tarnishing of silver and silver-plated articles, in words [3]: substantially ineffective | Effective Silver Anti-Tarnishing [2, 9]: No (A tarnish score of 3 or less was considered effective as a silver anti-tarnishing compound) | Effective Silver Anti-Tarnishing [2, 10]: No (A tarnish score of 3 or less was considered effective as a silver anti-tarnishing compound)

c1cc[nH]c1 [Pyrrole, reference compound]
prevention of heavy tarnishing of silver and silver-plated articles, in words [3]: substantially ineffective | Effective Silver Anti-Tarnishing [2, 9]: No (A tarnish score of 3 or less was considered effective as a silver anti-tarnishing compound) | Effective Silver Anti-Tarnishing [2, 10]: No (A tarnish score of 3 or less was considered effective as a silver anti-tarnishing compound)

O=c1[nH]c(=O)c2[nH]c(=O)[nH]c2[nH]1 [Uric Acid]
pKa [1]: 4.6 | Effective Silver Anti-Tarnishing [2, 9]: Yes (A tarnish score of 3 or less was considered effective as a silver anti-tarnishing compound)

O=c1[nH]c(=O)c2[nH]cnc2[nH]1 [Xanthine]
pKa [1]: 7 | Effective Silver Anti-Tarnishing [2, 9]: Yes (A tarnish score of 3 or less was considered effective as a silver anti-tarnishing compound)

c1ccc2[nH]ncc2c1 [indazole, reference compound]
prevention of heavy tarnishing of silver and silver-plated articles, in words [3]: substantially ineffective

c1cncnc1 [pyrimidine, reference compound]
prevention of heavy tarnishing of silver and silver-plated articles, in words [3]: substantially ineffective
